Results: PubChem BioAssay (NCI)
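Results reflect a 48-hour exposure of cells in 96-well plates to compound at five concentrations. TGI is the concentration that stops growth completely.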

Experiments:
Test in all cases: NCI-60 cell line screen, 48 h
[1] = system: A498 renal
[2] = system: NCI-H522 lung
[3] = system: NCI-H460 lung
[4] = system: SNB-19 CNS
[5] = system: HOP-62 NSCLC
[6] = system: HOP-18 NSCLC
[7] = system: KM12 colon
[8] = system: SW-620 colon
[9] = system: HL-60(TB) leukemia
[10] = system: EKVX NSCLC
[11] = system: RXF-631 renal
[12] = system: HT29 colon
[13] = system: RXF 393 renal
[14] = system: LXFL 529 NSCLC
[15] = system: UO-31 renal
[16] = system: DMS 114 small cell lung
[17] = system: OVCAR-5 ovarian
[18] = system: SF-539 CNS
[19] = system: 786-0 renal
[20] = system: M14 melanoma
[21] = system: MOLT-4 leukemia
[22] = system: TK-10 renal
[23] = system: UACC-62 melanoma
[24] = system: DMS 273 small cell lung
[25] = system: SNB-78 CNS
[26] = system: HCT-15 colon
[27] = system: LOX IMVI melanoma
[28] = system: U251 CNS
[29] = system: CAKI-1 renal
[30] = system: M19-MEL melanoma
[31] = system: SN12C renal
[32] = system: A549 NSCLC
[33] = system: ACHN renal
[34] = system: IGROV1 ovarian
[35] = system: MALME-3M melanoma
[36] = system: NCI-H226 lung
[37] = system: OVCAR-4 ovarian
[38] = system: SF-295 CNS
[39] = system: COLO 205 colon
[40] = system: UACC-257 melanoma
[41] = system: CCRF-CEM leukemia
[42] = system: SF-268 CNS
[43] = system: OVCAR-3 ovarian
[44] = system: RPMI-8226 leukemia
[45] = system: DLD-1 colon
[46] = system: SK-MEL-28 melanoma
[47] = system: HOP-92 NSCLC
[48] = system: KM20L2 colon
[49] = system: HCT-116 colon
[50] = system: K-562 leukemia
[51] = system: OVCAR-8 ovarian
[52] = system: SK-MEL-5 melanoma
[53] = system: SK-OV-3 ovarian
[54] = system: SK-MEL-2 melanoma
[55] = system: HCC-2998 colon
[56] = system: SR leukemia
[57] = system: SNB-75 CNS
[58] = system: NCI-H23 lung
[59] = system: XF 498 CNS

For `COc1cc(/C=C/c2ccc(OC(C)=O)cc2)cc(OC)c1OC`, the TGI [1] was 71.8 µM, the TGI [2] was 81.9 µM and the TGI [3] was 91.6 µM. For the same compound, the TGI [4] was > 100 µM, the TGI [5] was > 100 µM and the TGI [6] was > 100 µM. For the same compound, the TGI [7] was > 100 µM, the TGI [8] was > 100 µM and the TGI [9] was 52.6 µM. For the same compound, the TGI [10] was > 100 µM, the TGI [11] was > 100 µM and the TGI [12] was > 100 µM. The TGI [13] was 39.2 µM, the TGI [14] was > 100 µM and the TGI [15] was 56.1 µM. The TGI [16] was 94.2 µM, the TGI [17] was 68.6 µM and the TGI [18] was 60.8 µM. For the same compound, the TGI [19] was > 100 µM, the TGI [20] was > 100 µM and the TGI [21] was 75.7 µM. For the same compound, the TGI [22] was > 100 µM, the TGI [23] was 70.6 µM and the TGI [24] was > 100 µM. For the same compound, the TGI [25] was > 100 µM, the TGI [26] was > 100 µM and the TGI [27] was 94.1 µM. The TGI [28] was > 100 µM, the TGI [29] was > 100 µM and the TGI [30] was > 100 µM. The TGI [31] was > 100 µM, the TGI [32] was 85.2 µM and the TGI [33] was 78.6 µM. For the same compound, the TGI [34] was > 100 µM, the TGI [35] was 97.1 µM and the TGI [36] was > 100 µM. The TGI [37] was > 100 µM, the TGI [38] was 66.3 µM and the TGI [39] was 67.2 µM. For the same compound, the TGI [40] was > 100 µM, the TGI [41] was > 100 µM and the TGI [42] was > 100 µM. For the same compound, the TGI [43] was 68.2 µM, the TGI [44] was 68.6 µM and the TGI [45] was > 100 µM. The TGI [46] was > 100 µM, the TGI [47] was 80.2 µM and the TGI [48] was > 100 µM. For the same compound, the TGI [49] was > 100 µM, the TGI [50] was > 100 µM and the TGI [51] was > 100 µM. It also gave a TGI [52] of 34.6 µM.

For `CC(=O)C1C(=O)C(=O)N(c2ccccc2N2C(=O)C(=O)C(C(C)=O)C2=O)C1=O` (configuration not stated), the TGI [1] was > 100 µM, the TGI [2] was > 100 µM and the TGI [3] was > 100 µM. The TGI [53] was > 100 µM, the TGI [4] was > 100 µM and the TGI [5] was > 100 µM. The TGI [54] was > 100 µM, the TGI [6] was > 100 µM and the TGI [7] was > 100 µM. The TGI [8] was > 100 µM, the TGI [9] was > 100 µM and the TGI [10] was > 100 µM. For the same compound, the TGI [55] was > 100 µM, the TGI [11] was > 100 µM and the TGI [12] was > 100 µM. The TGI [13] was > 100 µM, the TGI [14] was > 100 µM and the TGI [15] was > 100 µM. The TGI [16] was > 100 µM, the TGI [17] was > 100 µM and the TGI [18] was > 100 µM. For the same compound, the TGI [19] was > 100 µM, the TGI [20] was > 100 µM and the TGI [21] was > 100 µM. For the same compound, the TGI [22] was > 100 µM, the TGI [23] was > 100 µM and the TGI [25] was > 100 µM. The TGI [26] was > 100 µM, the TGI [27] was > 100 µM and the TGI [28] was > 100 µM. For the same compound, the TGI [29] was > 100 µM, the TGI [56] was > 100 µM and the TGI [30] was > 100 µM. For the same compound, the TGI [31] was > 100 µM, the TGI [57] was > 100 µM and the TGI [32] was > 100 µM. For the same compound, the TGI [33] was > 100 µM, the TGI [34] was > 100 µM and the TGI [35] was > 100 µM. The TGI [36] was > 100 µM, the TGI [37] was > 100 µM and the TGI [38] was > 100 µM. The TGI [58] was > 100 µM, the TGI [39] was > 100 µM and the TGI [40] was > 100 µM. The TGI [41] was > 100 µM, the TGI [42] was > 100 µM and the TGI [43] was > 100 µM. The TGI [44] was > 100 µM, the TGI [45] was > 100 µM and the TGI [46] was > 100 µM. The TGI [47] was > 100 µM, the TGI [48] was > 100 µM and the TGI [49] was > 100 µM. The TGI [50] was > 100 µM, the TGI [51] was > 100 µM and the TGI [52] was > 100 µM.

For `CC1(Br)C(=O)NC(=O)N(C2CC(N=[N+]=[N-])C(CO)O2)C1N=[N+]=[N-]` (configuration not stated), the TGI [1] was > 100 µM, the TGI [2] was 66.8 µM and the TGI [3] was > 100 µM. The TGI [53] was > 100 µM, the TGI [4] was > 100 µM and the TGI [5] was > 100 µM. For the same compound, the TGI [54] was > 100 µM, the TGI [7] was > 100 µM and the TGI [8] was > 100 µM. For the same compound, the TGI [59] was > 100 µM, the TGI [9] was > 100 µM and the TGI [10] was > 100 µM. The TGI [55] was > 100 µM, the TGI [11] was > 100 µM and the TGI [12] was > 100 µM. The TGI [13] was > 100 µM, the TGI [14] was > 100 µM and the TGI [15] was > 100 µM. For the same compound, the TGI [16] was > 100 µM, the TGI [17] was > 100 µM and the TGI [18] was > 100 µM. For the same compound, the TGI [19] was > 100 µM, the TGI [20] was > 100 µM and the TGI [21] was > 100 µM. The TGI [22] was > 100 µM, the TGI [23] was > 100 µM and the TGI [24] was > 100 µM. For the same compound, the TGI [25] was > 100 µM, the TGI [26] was > 100 µM and the TGI [27] was > 100 µM. For the same compound, the TGI [28] was > 100 µM, the TGI [29] was > 100 µM and the TGI [30] was > 100 µM. The TGI [31] was > 100 µM, the TGI [57] was > 100 µM and the TGI [32] was > 100 µM. For the same compound, the TGI [33] was > 100 µM, the TGI [34] was > 100 µM and the TGI [35] was > 100 µM. For the same compound, the TGI [37] was > 100 µM, the TGI [38] was > 100 µM and the TGI [58] was > 100 µM. For the same compound, the TGI [39] was > 100 µM, the TGI [40] was > 100 µM and the TGI [41] was > 100 µM. The TGI [42] was > 100 µM, the TGI [43] was > 100 µM and the TGI [44] was > 100 µM. For the same compound, the TGI [45] was > 100 µM, the TGI [46] was > 100 µM and the TGI [47] was > 100 µM. For the same compound, the TGI [48] was > 100 µM, the TGI [50] was > 100 µM and the TGI [51] was > 100 µM. For the same compound, the TGI [52] was > 100 µM.

`CC(C)(C)OC(=O)NC1CCC[C@H]1O` (some centres not stated) was tested, and the TGI [1] was > 100 µM, the TGI [2] was > 100 µM and the TGI [3] was > 100 µM. The TGI [53] was > 100 µM, the TGI [4] was > 100 µM and the TGI [5] was > 100 µM. The TGI [54] was > 100 µM, the TGI [7] was > 100 µM and the TGI [8] was > 100 µM. For the same compound, the TGI [59] was > 100 µM, the TGI [10] was > 100 µM and the TGI [55] was > 100 µM. The TGI [11] was > 100 µM, the TGI [12] was > 100 µM and the TGI [13] was > 100 µM. For the same compound, the TGI [14] was > 100 µM, the TGI [15] was > 100 µM and the TGI [16] was > 100 µM. For the same compound, the TGI [17] was > 100 µM, the TGI [18] was > 100 µM and the TGI [19] was > 100 µM. The TGI [20] was > 100 µM, the TGI [21] was > 100 µM and the TGI [22] was > 100 µM. The TGI [23] was > 100 µM, the TGI [24] was > 100 µM and the TGI [25] was > 100 µM. For the same compound, the TGI [27] was > 100 µM, the TGI [28] was > 100 µM and the TGI [29] was > 100 µM. The TGI [56] was > 100 µM, the TGI [30] was > 100 µM and the TGI [31] was > 100 µM. The TGI [57] was > 100 µM, the TGI [32] was > 100 µM and the TGI [33] was > 100 µM. For the same compound, the TGI [35] was > 100 µM, the TGI [36] was > 100 µM and the TGI [37] was > 100 µM. For the same compound, the TGI [38] was > 100 µM, the TGI [58] was > 100 µM and the TGI [40] was > 100 µM. For the same compound, the TGI [41] was > 100 µM, the TGI [42] was > 100 µM and the TGI [43] was > 100 µM. For the same compound, the TGI [45] was > 100 µM, the TGI [46] was > 100 µM and the TGI [47] was > 100 µM. The TGI [48] was > 100 µM, the TGI [49] was > 100 µM and the TGI [50] was > 100 µM. For the same compound, the TGI [51] was > 100 µM and the TGI [52] was > 100 µM.
